In patent publication US20110086891A1, “Solid Forms of 2-(2,4-Difluorophenyl)-6-(1-(2,6-Difluorophenyl)Ureido)Nicotinamide)” (Vertex Pharmaceuticals Incorporated, priority 2009, published 2011):
Converted amounts (≈) assume the structure as drawn. “Also recorded” adds a separate entry of the source.

Key:
Format in all cases: physicochemical
[1] = Solubility analysis (in water); conditions: 25 °C, thermodynamic from solid
Procedure: This was measured by suspending enough Compound I in 0.25 mL of solvent (water) to give a maximum final concentration of ≧10 mg/ml of the parent free form of the compound. The suspension was equilibrated at 25° C. for 24 hrs followed by a pH check and filtration through a glass fibre C96 well plate. The filtrate was then diluted down by a factor of 101. Quantitation was by HPLC (Table XI) with reference to a standard, diluted and undiluted tests were injected. The solubility was calculated by integration of the peak area found at the same retention time as the peak maximum in the standard injection. If there is sufficient solid in the filter plate the XRPD is normally checked for phase changes, hydrate formation, amorphization, crystallization, etc.

[2] = Apparent (non-equilibrium) solubilities of Form C in various solvents; conditions: thermodynamic from solid
Procedure: Table XIII contains representative apparent (non-equilibrium) solubilities of Form C in various exemplary solvents.
Fifty (50.0) mg of Compound I, Form C was weighed into a small, screw-top vial. The relevant solvent was added in portions until a clear solution was obtained. In several cases, solubilization was aided by heating with a heat gun and then allowed to cool down to rt. The data provided in Table XIII are representative and some variability may occur between lots of a particular sample, e.g., about 10%.

[3] = Stability studies at 40° C./75% RH (physical and chemical stability, XRPD)
Excerpt: In some embodiments, less than 25% of the solid form of Compound I decomposes, in some embodiments, less than about 20%, less than about 15%, less than about 10%, less than about 5%, less than about 3%, less than about 1%, less than about 0.5% of the form of Compound I decomposes under the conditions specified. In some embodiments, no detectable amount of the solid form of Compound I decomposes. […] In some embodiments, less than 25% of the solid form of Compound I changes into one or more different physical forms when subjected to specified conditions. In some embodiments, less than about 20%, less than about 15%, less than about 10%, less than about 5%, less than about 3%, less than about 1%, less than about 0.5% of the solid form of Compound I changes into one or more different physical forms of Compound I when subjected to specified conditions. In some embodiments, no detectable amount of the solid form of Compound I changes into one or more physically different solid forms of Compound I.

[4] = Gravimetric vapour sorption (GVS) studies
Procedure: All samples were run on a Hiden IGASorp moisture sorption analyzer running CFRSorp software. Sample sizes were typically 10 mg. A moisture absorption-desorption isotherm was performed as outlined below in Table X (2 scans giving 1 complete cycle). All samples were loaded/unloaded at typical room humidity and temperature (40% RH, 25° C.). All samples were analysed by XRPD post GVS analysis. The standard isotherm was performed at 25° C. at 10% RH intervals over a 0-90% RH range.

[5] = Interconversion studies (slurries in EtOAc, MeOH and water); conditions: ambient conditions
Procedure: Interconversion studies between the different forms of Compound I described herein were carried out using the general procedure outlined here:
Interconversion studies were conducted in EtOAc, MeOH and water with materials giving XRPD patterns A, P, C and F. Attempts were made to monitor the presence of the different forms of Compound I in the methanol and ethyl acetate interconversion slurries using Raman analysis and XRPD. The presence of the solvents was dominant in the Raman spectra of the slurries. […] After slurrying for 10 days, pattern A was obtained from MeOH. Pattern C was obtained from all samples slurried in EtOAc or water. […] Interconversion data can be found in Tables XVII.

[6] = Relative stability studies: slurrying 1:1 mixtures of forms in 3:1 water:ethanol at various temperatures; conditions: slurry in 3:1 water:ethanol
Procedure: 1:1 mixtures of Form C and form G of Compound I were slurried in 3:1 water:ethanol at a range of temperatures to determine the relative stability at different temperatures. 5 mg of Form C was mixed with 5 mg of Form G in a glass vial. 1.0 ml of 3:1 water:ethanol was added and the resulting slurry was stirred at 5° C. for 10 days. The resulting solid was isolated by filtration and analysed by XRPD (see FIG. 17).
(§1) The above procedure was repeated at 25, 50 and 80° C.
1:1 mixtures of Form C and Form F were slurried in 3:1 water:ethanol at a range of temperatures to determine the relative stability at different temperatures. […] Ethanol was used in addition to water in order to increase the amount of Compound I in solution and so increase the rate of conversion between forms. Ethanol was chosen as no ethanol solvate of Compound I was known. 10 mg of Form C was mixed with 10 mg of Form F in a glass vial. 2.0 ml of 3:1 water:ethanol was added and the resulting slurry was stirred at 5° C. for 24 hours. Solid was isolated by filtration and analysed by XRPD.
as §1
1:1 mixtures of Form F and Form G were slurried in 3:1 water:ethanol at a range of temperatures to determine the relative stability at different temperatures. 10 mg of Form F was mixed with 10 mg of Form G in a glass vial. 2.0 ml of 3:1 water:ethanol was added and the resulting slurry was stirred at 5° C. for 24 hours. The resulting solid was isolated by filtration and analysed by XRPD. The above procedure was repeated at 25, 50 and 70° C. 70° C. was used instead of 80° C. in an attempt to reduce degradation.

## NC(=O)c1ccc(N(C(N)=O)c2c(F)cccc2F)nc1-c1ccc(F)cc1F [Form C, 2-(2,4-difluorophenyl)-6-(1-(2,6-difluorophenyl)ureido)nicotinamide]
[1]
  solubility at 24 h: ≥ 0.02 mg/mL
[2]; organic solvent or mixture, apparent, 1,4-dioxane
  solubility: 100 mg/mL (≈ 247 mM)
[2]; organic solvent or mixture, apparent, 1-Butanol
  solubility: 50 mg/mL (≈ 124 mM)
[2]; organic solvent or mixture, apparent, 2-Butanone
  solubility: 50 mg/mL (≈ 124 mM)
[2]; organic solvent or mixture, apparent, 2-Propanol
  solubility: 50 mg/mL (≈ 124 mM)
[2]; organic solvent or mixture, apparent, 2-Propyl Acetate
  solubility: < 20 mg/mL
[2]; organic solvent or mixture, apparent, Acetone
  solubility: 50 mg/mL (≈ 124 mM)
[2]; organic solvent or mixture, apparent, Acetonitrile
  solubility: 33 mg/mL (≈ 81.6 mM)
[2]; organic solvent or mixture, apparent, Butyl acetate
  solubility: 33 mg/mL (≈ 81.6 mM)
[2]; organic solvent or mixture, apparent, DMSO
  solubility: 100 mg/mL (≈ 247 mM)
[2]; organic solvent or mixture, apparent, Dimethylformamide
  solubility: 100 mg/mL (≈ 247 mM)
[2]; organic solvent or mixture, apparent, Ethanol
  solubility: 50 mg/mL (≈ 124 mM)
[2]; organic solvent or mixture, apparent, Ethyl Acetate
  solubility: 20 mg/mL (≈ 49.5 mM)
[2]; organic solvent or mixture, apparent, Heptane
  solubility: < 20 mg/mL
[2]; organic solvent or mixture, apparent, Hexafluorophenol
  solubility: 100 mg/mL (≈ 247 mM)
[2]; organic solvent or mixture, apparent, Methanol
  solubility: 100 mg/mL (≈ 247 mM)
[2]; organic solvent or mixture, apparent, Methyl isobutyl ketone
  solubility: 50 mg/mL (≈ 124 mM)
[2]; organic solvent or mixture, apparent, Methylene Chloride
  solubility: < 20 mg/mL
[2]; organic solvent or mixture, apparent, N,N-dimethylacetamide
  solubility: 100 mg/mL (≈ 247 mM)
[2]; organic solvent or mixture, apparent, Tert-butyl methyl ether
  solubility: < 20 mg/mL
[2]; organic solvent or mixture, apparent, Tetrahydrofuran
  solubility: 20 mg/mL (≈ 49.5 mM)
[2]; organic solvent or mixture, apparent, Toluene
  solubility: 20 mg/mL (≈ 49.5 mM)
[2]; organic solvent or mixture, apparent, cyclohexane
  solubility: < 20 mg/mL
[2]; apparent, Water
  solubility: < 20 mg/mL
[3]
  results of stability studies as seen by XRPD (before and after spectra): before and after spectra are similar
[3]; 40° C./75% RH
  time remaining in substantially the same physical form: at least two
[4]; 0 to 90% RH, T=25° C.
  total weight gain from 0 to 90% RH: 0.15%
[4]; up to 60% RH, 25° C.
  weight gain up to 60% RH: negligible
[5]
  relative stability of unsolvated forms: most stable unsolvated form at ambient conditions
[6]
  relative stability between forms: more stable than Form G at a temperature of 50 °C or above; also recorded: more stable than Form F at 50 and 80 °C
